Source: paper PMC3415135 (Evidence-based Complementary and Alternative Medicine : eCAM, 2012)
Values after ≈ are worked out from the molar mass of the structure shown.

Experiments:
Type in all cases: biochemical
[1] = molecular target: T1, HGVPLA2 (human group V PLA2) (Homo sapiens, UniProt P39877); experiment: enzyme inhibition, Cayman kit
T1 construct: gene PLA2G5; commercial assay, Cayman Chemical
T1 sequence (P39877 21-138): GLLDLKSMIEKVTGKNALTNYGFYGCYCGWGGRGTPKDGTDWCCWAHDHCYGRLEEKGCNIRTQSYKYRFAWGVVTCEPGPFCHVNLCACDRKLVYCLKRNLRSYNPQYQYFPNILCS
Description: enzyme inhibition, Cayman kit on HGVPLA2 (human group V PLA2)

COX-2 (cyclooxygenase-2) = molecular target: T2, COX-2 (cyclooxygenase-2); experiment: enzyme inhibition, Cayman kit; details: per manufacturer's instructions
T2 construct: gene PTGS2; commercial, Cayman Chemical
Description: enzyme inhibition, Cayman kit on COX-2 (cyclooxygenase-2)

[2] = molecular target: T3, BPPLA2 (bovine pancreas PLA2) (Bos taurus, UniProt P00593); experiment: enzyme inhibition, Cayman kit
T3 construct: gene PLA2G1B; native pancreatic enzyme, purchased from Sigma-Aldrich
Description: enzyme inhibition, Cayman kit on BPPLA2 (bovine pancreas PLA2)

[3] = molecular target: T4, LOX 15HRC (Lipoxygenase 15hrc); experiment: enzyme inhibition, Cayman kit; details: per manufacturer's instructions
T4 construct: gene ALOX15; commercial, Cayman Chemical
Description: enzyme inhibition, Cayman kit on LOX 15HRC (Lipoxygenase 15hrc)

Apis = Apis (Apis mellifera, UniProt P00630)
Chain of Apis (P00630 34-167 limits assumed): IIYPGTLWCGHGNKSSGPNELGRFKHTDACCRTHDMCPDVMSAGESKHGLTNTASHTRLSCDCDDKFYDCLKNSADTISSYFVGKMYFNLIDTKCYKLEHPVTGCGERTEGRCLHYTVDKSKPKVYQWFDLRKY

T3 sequence (P00593 23-145): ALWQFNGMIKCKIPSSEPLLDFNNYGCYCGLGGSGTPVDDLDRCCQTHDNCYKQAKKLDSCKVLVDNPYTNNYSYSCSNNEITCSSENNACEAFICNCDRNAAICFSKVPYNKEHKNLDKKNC

Row | SMILES | IC50 [1] [µM] | IC50 (COX-2 (cyclooxygenase-2)) [µg/mL] | IC50 [2] [µM] | IC50 [3] [µg/mL] | hydrolysis, A425 (Apis)
1 | CC1(C)Oc2cc3occ(-c4ccc5c(c4)OCO5)c(=O)c3c(O)c2C[C@H]1O [harpalycin 2] | 71.7 | 32.73 (≈ 85.6 µM) | 31.1 | 55.96 (≈ 146 µM) | 
2 | CCCCCCCC(=O)Oc1cc(C(=O)O)ccc1[N+](=O)[O-] [4-nitro-3-octanoyloxy-benzoic acid] |  |  |  |  | as a direct result of the cleavage of the synthetic substrate
